# Laboratory results reported in PMC6435570, “Zafirlukast Is a Dual Modulator of Human Soluble Epoxide Hydrolase and Peroxisome Proliferator-Activated Receptor γ” (Frontiers in Pharmacology, 2019).
# Columns and labels:
# [1] = molecular target: T1, human PPARα ligand binding domain (Homo sapiens, UniProt Q07869); test: PPAR reporter gene assay (Gal4 hybrid, PPARα); format: cell-based; settings: HEK-293T, reference GW7647 1 μM, tested up to 10 μM
# T1 construct: expressed in transfected cells; host or cells: HEK-293T
# T1 sequence (Q07869 239-466 limits assumed): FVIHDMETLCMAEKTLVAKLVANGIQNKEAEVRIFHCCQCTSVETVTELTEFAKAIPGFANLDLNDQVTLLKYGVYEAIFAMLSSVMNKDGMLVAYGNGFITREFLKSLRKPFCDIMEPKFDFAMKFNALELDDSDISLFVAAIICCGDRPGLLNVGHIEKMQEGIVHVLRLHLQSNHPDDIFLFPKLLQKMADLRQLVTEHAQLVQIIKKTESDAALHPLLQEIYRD
# Procedure: HEK-293T cells were seeded in 96-well plates (2.5 × 10^4 cells/well) and were allowed to adhere overnight. Before transfection, medium was changed to Opti-MEM without supplements. Transient plasmid transfection was carried out using Lipofectamine LTX reagent (Invitrogen, Carlsbad, CA, United States) according to the manufacturer’s protocol with pFR-Luc (Stratagene, La Jolla, CA, United States), pRL-SV40 (Promega, Fitchburg, MA, United States) and pFA-CMV-PPAR-LBD ([Rau et al., 2006]). 5 h after transfection, medium was changed to Opti-MEM supplemented with penicillin (100 U/mL) and streptomycin (100 μg/mL), now additionally containing 0.1% DMSO and the respective test compound or 0.1% DMSO alone as untreated control. Each concentration was tested in triplicates and each experiment was repeated independently at least four times. Following overnight (12–16 h) incubation with the test compounds, cells were assayed for luciferase activity using the Dual-Glo^TM Luciferase Assay System (Promega, Fitchburg, MA, United States) according to the manufacturer’s protocol. Luminescence was measured with an Infinite M200 luminometer (Tecan Group Ltd., Männedorf, Switzerland). Normalization of transfection efficiency and cell growth was done by division of firefly luciferase data by renilla luciferase data and multiplying the value by 1000 resulting in relative light units (RLU). Fold activation was obtained by dividing the mean RLU of a test compound at a respective concentration by the mean RLU of untreated control. Relative activation was obtained by dividing the fold activation of a test compound at a respective concentration by the fold activation of the respective PPARα, γ or δ full agonist GW-7647, pioglitazone or L165,041 at 1 μM. EC50 and standard deviation were calculated with the mean relative activation values of at least four independent experiments by SigmaPlot 10.0 (Systat Software GmbH, Erkrath, Germany) using a four parameter logistic regression. […]
# [2] = test system: PPARγ, FABP-4 and CD36 protein in 3T3-L1 adipocytes; test: Protein expression in differentiated 3T3-L1 adipocytes (Western Blot); format: cell-based, murine; settings: rosiglitazone 2 μM; for PPARγ isoforms γ1 and γ2 protein expression: 3T3-L1 differentiated with cocktail plus compound; for Protein expression of PPARγ target genes FABP-4 and CD36: after 14 days
# Procedure: (§1) 3T3-L1 cells were differentiated into adipocytes for 14 days according to the protocol of [Zebisch et al. (2012)]. For this, cells were seeded in 6-well plates ([…]) and differentiation was induced after 48 h by addition of a differentiation cocktail containing 1 μg/mL insulin, 0.25 μM dexamethasone and 0.5 mM isobutylmethylxanthine (IBMX) in DMEM supplemented with 10% FCS and 1% PS. […] After 2 days, medium was replaced by DMEM supplemented with 10% FCS, 1% PS and 1 μg/mL insulin for 2 more days. Afterwards, cells were kept for lipid droplet accumulation in DMEM containing 10% FCS and 1% PS until day 15. Media were replaced every other day.
# Total 3T3-L1 or HEP-G2 cell lysates were prepared in lysis buffer (20 mM Tris-HCl, pH 7.4, 150 mM NaCl, 2 mM EDTA, 1% Triton X-100, 0.5% NP-40) supplemented with protease and phosphatase inhibitors (PhosSTOP^TM + cOmplete^TM Mini, Roche Diagnostics GmbH, Mannheim, Germany). Protein concentrations were quantified using the Pierce^TM BCA Protein Assay Kit (Thermo Scientific, Waltham, MA, United States). Total protein (30 μg/lane) was separated by SDS-polyacrylamide gel electrophoresis and transferred to nitrocellulose membranes (GE Healthcare Life Sciences, Little Chalfont, United Kingdom). Membranes were blocked with Odyssey blocking reagent (LI-COR Biosciences, Bad Homburg, Germany) for 1 h at room temperature. Ensuing, membranes were incubated with antibodies against CD36 (EPR6573, Abcam, Cambridge, United Kingdom), PPARγ (E-8, Santa Cruz Biotechnology, Heidelberg, Germany), FABP-4 (C-15, Santa Cruz Biotechnology, Heidelberg, Germany) or PPARγ Ser273 (Bioss Antibodies Inc., Woburn, MA, United States) overnight at 4°C. Afterwards, membranes were washed and incubated with fluorescence conjugated secondary antibodies (IRDye, LI-COR Biosciences, Bad Homburg, Germany). Protein antibody complexes were visualized on the Odyssey Infrared Imaging System (LI-COR Biosciences, Bad Homburg, Germany). β-actin (I-19, goat, polyclonal, Santa Cruz Biotechnology, Heidelberg, Germany) was used as loading control. The density of the immune reactive bands was analyzed using the Image Studio 5.2 software (LI-COR Biosciences, Bad Homburg, Germany).
# As master regulator of adipocyte differentiation in men and mice, PPARγ plays a crucial role in the cell’s commitment to the adipocyte lineage by controlling important functions such as intracellular biosynthesis, transport and accumulation of lipids. Murine 3T3-L1 fibroblasts are a well characterized in vitro tool to study PPARγ induced adipocyte differentiation. These cells can be differentiated from fibroblasts into adipocytes by an activation cocktail (0.5 mM IBMX, 1 μg/mL insulin, 0.25 μM dexamethasone) together with the potential PPARγ agonist. Upon differentiation, different parameters such as lipid accumulation and PPARγ target gene expression can be assessed to investigate the PPARγ activating potential of the compounds of interest. […] Rosiglitazone (2 μM) was used as positive control. This was followed by insulin (1 μg/mL) treatment for another 48 h. After this, cells were kept in growth medium for a week to complete the differentiation process and allow intracellular lipid accumulation. Subsequently, the cells were stained with Oil Red O solution to investigate the extent of cytoplasmic lipid droplet accumulation as a measure for cell differentiation.
# In addition to mRNA expression, the protein expression levels of the two PPARγ target genes FABP-4 and CD36 in differentiated 3T3-L1 cells after 14 days were investigated. For this, total protein lysates were separated by gel electrophoresis followed by Western Blotting (Figure 3E,F and Supplementary Figures S2A,B).
# [3] = test system: PPARγ target genes (LPL, GLUT-4, FABP-4, adiponectin) in 3T3-L1 adipocytes; test: PPARγ target gene mRNA expression in differentiated 3T3-L1 adipocytes (qRT-PCR); format: cell-based, murine; settings: after 14 days; for mRNA expression of PPARγ target genes (LPL, GLUT-4, FABP-4, adiponectin): normalized to cells with activation cocktail only
# Procedure: as §1
# 3T3-L1 cells were lysed using TRIzol® reagent (Ambion Life Technologies, Carlsbad, CA, United States). Subsequently, mRNA was isolated following the manufacturers protocol. DNA contaminations were digested using DNAse (DNase I, RNase-free Kit; Thermo Scientific, Waltham, MA, United States) and mRNA concentrations were determined using a NanoDrop^TM2000 spectrophotometer (Thermo Scientific, Waltham, MA, United States). Afterwards, reverse transcription was performed using the High Capacity RNA-to-cDNA Kit (Applied Biosystems, Foster City, CA, United States) following the manufacturers protocol. […] Relative mRNA expression was determined by the 2^-ΔΔCt method normalized to murine non-POU domain-containing octamer binding protein (Nono). All samples were measured in triplicates and experiments were repeated independently at least three times.
# To gain further insight in PPARγ activation after compound treatment, mature 3T3-L1 adipocytes were harvested after 14 days and mRNA was isolated, reverse transcribed and subjected to quantitative RT-PCR. mRNA expression of the PPARγ target genes lipoprotein lipase (LPL), the glucose transporter 4 (GLUT-4), the fatty acid binding protein 4 (FABP-4) and adiponectin was monitored by quantitative PCR (Figure 3A–D and Supplementary Figure S1). […]
SMILES,PPARα EC50 [1],PPARγ isoforms γ1 and γ2 protein expression [2],Protein expression of PPARγ target genes FABP-4 and CD36 [2],"mRNA expression of PPARγ target genes (LPL, GLUT-4, FABP-4, adiponectin) [3]",Adiponectin mRNA level ([3]; compared to the other target genes)
"CC(C)(O)c1ccccc1CC[C@@H](SCC1(CC(=O)O)CC1)c1cccc(/C=C/c2ccc3ccc(Cl)cc3n2)c1 [Montelukast, montelukast]",i.a. @ 10 μM,not affected,no effect at all,did not influence the expression,
"COc1cc(C(=O)NS(=O)(=O)c2ccccc2C)ccc1Cc1cn(C)c2ccc(NC(=O)OC3CCCC3)cc12 [Zafirlukast, zafirlukast]",i.a. @ 10 μM,upregulated the protein levels,induced target gene expression as well but to a weaker extent,dose-dependently induced target gene expression although to a lesser extent compared to rosiglitazone,elevated adiponectin levels more effectively compared to the other target genes
